Source: US20230257372A1 (CHONG KUN DANG PHARMACEUTICAL CORP., priority 2020, published 2023)
Read-outs that look alike come from different tables or passages of the source.

Tests used:
human recombinant HDAC1 = biological target: T1, human recombinant HDAC1 (Homo sapiens, UniProt Q13547); assay: HDAC1 enzyme activity inhibition (HDAC Fluorimetric Drug Discovery Kit); format: biochemical; settings: read-out: HDAC1
T1 construct: purchased Enzo Life Science, Inc. BML-SE456
How it was run: (§1)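 Fluorescence from a Fluor de Lys developer step (30 minutes) reports residual deacetylation after a 60-minute, 30° C reaction of […] enzyme with 10 μM substrate and 5-fold compound dilutions.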

human recombinant HDAC6 = biological target: T2, human recombinant HDAC6 (Homo sapiens, UniProt Q9UBN7); assay: HDAC6 enzyme activity inhibition (HDAC Fluorimetric Drug Discovery Kit); format: biochemical
T2 construct: purchased Calbiochem Inc. 382180
T2 sequence (Q9UBN7 1-1215): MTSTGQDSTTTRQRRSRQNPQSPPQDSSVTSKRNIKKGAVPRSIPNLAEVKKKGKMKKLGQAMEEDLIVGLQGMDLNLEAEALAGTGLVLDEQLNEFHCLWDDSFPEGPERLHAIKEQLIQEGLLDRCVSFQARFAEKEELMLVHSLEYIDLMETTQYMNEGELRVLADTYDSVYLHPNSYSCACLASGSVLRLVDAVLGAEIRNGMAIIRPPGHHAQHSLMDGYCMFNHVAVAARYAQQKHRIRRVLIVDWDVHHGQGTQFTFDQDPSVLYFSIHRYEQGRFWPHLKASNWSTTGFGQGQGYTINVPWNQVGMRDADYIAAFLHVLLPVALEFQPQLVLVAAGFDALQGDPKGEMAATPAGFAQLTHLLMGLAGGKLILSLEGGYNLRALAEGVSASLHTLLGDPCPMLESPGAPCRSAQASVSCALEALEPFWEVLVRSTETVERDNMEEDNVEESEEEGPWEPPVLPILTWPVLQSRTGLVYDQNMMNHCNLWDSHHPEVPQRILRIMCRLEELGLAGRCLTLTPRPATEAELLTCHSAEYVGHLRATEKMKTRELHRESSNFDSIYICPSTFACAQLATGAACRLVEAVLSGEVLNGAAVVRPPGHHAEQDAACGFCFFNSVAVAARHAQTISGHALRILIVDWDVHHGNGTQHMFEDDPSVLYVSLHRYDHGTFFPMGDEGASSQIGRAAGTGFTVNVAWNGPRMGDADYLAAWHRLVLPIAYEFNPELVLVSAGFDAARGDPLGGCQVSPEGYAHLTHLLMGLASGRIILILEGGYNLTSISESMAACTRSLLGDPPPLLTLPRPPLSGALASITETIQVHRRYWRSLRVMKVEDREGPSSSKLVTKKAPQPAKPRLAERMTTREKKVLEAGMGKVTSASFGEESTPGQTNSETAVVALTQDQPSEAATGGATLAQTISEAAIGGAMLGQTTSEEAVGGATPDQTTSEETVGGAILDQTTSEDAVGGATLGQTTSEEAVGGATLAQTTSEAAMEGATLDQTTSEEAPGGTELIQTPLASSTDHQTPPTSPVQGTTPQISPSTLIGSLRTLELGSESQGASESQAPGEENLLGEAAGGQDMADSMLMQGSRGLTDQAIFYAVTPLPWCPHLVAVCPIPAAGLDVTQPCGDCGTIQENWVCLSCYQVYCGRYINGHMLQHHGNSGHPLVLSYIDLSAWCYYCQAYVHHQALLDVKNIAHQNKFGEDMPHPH
How it was run: as §1

[1] = human recombinant HDAC1, Fluor de Lys substrate, 30° C. 60 minutes
[2] = human recombinant HDAC6, same protocol as HDAC1
[3] = human recombinant HDAC1, IC50 calculated with GraphPad Prism
[4] = human recombinant HDAC6, IC50 calculated with GraphPad Prism

T1 sequence (Q13547 whole entry): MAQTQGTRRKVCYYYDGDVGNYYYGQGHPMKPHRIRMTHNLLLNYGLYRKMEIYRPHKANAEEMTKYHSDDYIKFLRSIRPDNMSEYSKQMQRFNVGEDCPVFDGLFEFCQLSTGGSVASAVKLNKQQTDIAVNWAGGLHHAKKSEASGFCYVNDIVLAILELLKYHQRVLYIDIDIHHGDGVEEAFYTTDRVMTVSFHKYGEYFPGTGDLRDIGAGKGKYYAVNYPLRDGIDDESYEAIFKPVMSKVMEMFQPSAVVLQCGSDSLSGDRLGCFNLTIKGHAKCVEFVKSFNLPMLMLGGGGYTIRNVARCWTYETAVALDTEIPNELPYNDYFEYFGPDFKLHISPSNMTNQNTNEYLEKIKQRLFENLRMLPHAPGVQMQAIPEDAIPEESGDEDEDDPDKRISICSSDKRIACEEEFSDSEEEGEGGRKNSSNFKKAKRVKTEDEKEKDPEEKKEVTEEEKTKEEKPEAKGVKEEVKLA

SMILES | IC50 (human recombinant HDAC1; [1]) [nM] | HDAC6 selectivity (fold) (human recombinant HDAC6; HDAC6 over HDAC1) | IC50 (human recombinant HDAC6; [2]) [nM] | IC50 (human recombinant HDAC1; [3]) [nM] | HDAC6 selectivity (fold) (human recombinant HDAC6; HDAC1 IC50 / HDAC6 IC50) | IC50 (human recombinant HDAC6; [4]) [nM]
Fc1cc(-c2nnc(C(F)F)o2)ccc1Cn1cc(-c2ccc(Br)cn2)nn1 [Compound 16928, 2-(4-((4-(5-bromopyridin-2-yl)-1H-1,2,3-triazol-1-yl)methyl)-3-fluorophenyl)-5-(difluoromethyl)-1,3,4-oxadiazole] | > 50000 | 586 | 85.3 | – | – | –
C[C@@H]1CN(c2cccc(-c3cn(Cc4ccc(-c5nnc(C(F)F)o5)cc4)nn3)c2)C[C@H](C)N1 [Compound 4440, 2-(difluoromethyl)-5-(4-((4-(3-((3R,5S)-3,5-dimethylpiperazin-1-yl)phenyl)-1H-1,2,3-triazol-1-yl)methyl)phenyl)-1,3,4-oxadiazole] | – | – | – | > 50000 | 1655 | 30.2
FC(F)c1nnc(-c2ccc(Cn3cc(-c4ccc(Cl)nc4)nn3)nc2)o1 [Compound 3882, 2-(6-((4-(6-chloropyridin-3-yl)-1H-1,2,3-triazol-1-yl)methyl)pyridin-3-yl)-5-(difluoromethyl)-1,3,4-oxadiazole] | – | – | – | > 50000 | 988 | 50.6
Fc1cc(-c2cn(Cc3ncc(-c4nnc(C(F)F)o4)cc3F)nn2)ccc1CN1CCCCC1 [Compound 18950, 2-(difluoromethyl)-5-(5-fluoro-6-((4-(3-fluoro-4-(piperidin-1-ylmethyl)phenyl)-1H-1,2,3-triazol-1-yl)methyl)pyridin-3-yl)-1,3,4-oxadiazole] | > 50000 | 570 | 87.6 | – | – | –
FC(F)c1nnc(-c2ccc(Cn3cc(-c4ccc(CN5CCCC5)cc4)nn3)nc2)o1 [Compound 4560, 2-(difluoromethyl)-5-(6-((4-(4-(pyrrolidin-1-ylmethyl)phenyl)-1H-1,2,3-triazol-1-yl)methyl)pyridin-3-yl)-1,3,4-oxadiazole] | > 50000 | 4672 | 10.7 | – | – | –
CC1CCN(Cc2c[nH]c3cc(-c4cn(Cc5ccc(-c6nnc(C(F)F)o6)cc5)nn4)ccc23)CC1 [Compound 4492, 2-(difluoromethyl)-5-(4-((4-(3-((4-methylpiperidin-1-yl)methyl)-1H-indol-6-yl)-1H-1,2,3-triazol-1-yl)methyl)phenyl)-1,3,4-oxadiazole] | – | – | – | > 50000 | 3333 | 15
FC(F)c1nnc(-c2ccc(Cn3cc(-c4ccnc5[nH]ccc45)nn3)cc2)o1 [Compound 4527, 2-(4-((4-(1H-pyrrolo[2,3-b]pyridin-4-yl)-1H-1,2,3-triazol-1-yl)methyl)phenyl)-5-(difluoromethyl)-1,3,4-oxadiazole] | > 50000 | 4310 | 11.6 | – | – | –
CC(C)N1CCN(Cc2cccc(-c3cn(Cc4ccc(-c5nnc(C(F)F)o5)cc4)nn3)c2)CC1 [Compound 4416, 2-(difluoromethyl)-5-(4-((4-(3-((4-isopropylpiperazin-1-yl)methyl)phenyl)-1H-1,2,3-triazol-1-yl)methyl)phenyl)-1,3,4-oxadiazole] | – | – | – | > 50000 | 427 | 112
C[C@@H]1CN(c2cccc(-c3cn(Cc4ccc(-c5nnc(C(F)F)o5)cc4)nn3)c2)C[C@H](C)N1C [Compound 4441, 2-(difluoromethyl)-5-(4-((4-(3-((3R,5S)-3,4,5-trimethylpiperazin-1-yl)phenyl)-1H-1,2,3-triazol-1-yl)methyl)phenyl)-1,3,4-oxadiazole] | – | – | – | > 50000 | 1315 | 38
FC(F)c1nnc(-c2ccc(Cn3cc(-c4ccc(N5CCOCC5)cc4)nn3)nc2)o1 [Compound 4105, 4-(4-(1-((5-(5-(difluoromethyl)-1,3,4-oxadiazol-2-yl)pyridin-2-yl)methyl)-1H-1,2,3-triazol-4-yl)phenyl)morpholin] | – | – | – | 34000 | 979 | 34.7
CN(C)CCC(=O)Nc1cccc(-c2cn(Cc3ccc(-c4nnc(C(F)F)o4)cc3F)nn2)c1 [Compound 4335] | – | – | – | > 50000 | 797 | 62.7
